Laboratory results taken from PubChem BioAssay (NCI).
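Exposure lasted 48 hours, with cells grown in 96-well plates and compounds tested at five concentrations. Here, GI50 denotes the concentration required for 50% inhibition of growth. TGI denotes the concentration required for complete inhibition of growth.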

What was measured:
Assay in all cases: NCI anticancer screen, dose series, 48 h
SN12C renal = tested on: SN12C renal
PC-3 prostate = tested on: PC-3 prostate
SK-MEL-5 melanoma = tested on: SK-MEL-5 melanoma
DU-145 prostate = tested on: DU-145 prostate
MCF7 breast = tested on: MCF7 breast
M14 melanoma = tested on: M14 melanoma
NCI-H460 lung = tested on: NCI-H460 lung
SF-539 CNS = tested on: SF-539 CNS
EKVX NSCLC = tested on: EKVX NSCLC
T-47D breast = tested on: T-47D breast
A549 NSCLC = tested on: A549 NSCLC
MDA-MB-435 = tested on: MDA-MB-435
HOP-92 NSCLC = tested on: HOP-92 NSCLC
HCT-116 colon = tested on: HCT-116 colon
SK-MEL-2 melanoma = tested on: SK-MEL-2 melanoma
IGROV1 ovarian = tested on: IGROV1 ovarian
NCI/ADR-RES ovarian = tested on: NCI/ADR-RES ovarian
786-0 renal = tested on: 786-0 renal
OVCAR-8 ovarian = tested on: OVCAR-8 ovarian
OVCAR-5 ovarian = tested on: OVCAR-5 ovarian
UACC-257 melanoma = tested on: UACC-257 melanoma
RXF 393 renal = tested on: RXF 393 renal
COLO 205 colon = tested on: COLO 205 colon
HCT-15 colon = tested on: HCT-15 colon
BT-549 breast = tested on: BT-549 breast
TK-10 renal = tested on: TK-10 renal
OVCAR-3 ovarian = tested on: OVCAR-3 ovarian
MDA-MB-468 breast = tested on: MDA-MB-468 breast
HT29 colon = tested on: HT29 colon
HS 578T breast = tested on: HS 578T breast
MOLT-4 leukemia = tested on: MOLT-4 leukemia
U251 CNS = tested on: U251 CNS
MALME-3M melanoma = tested on: MALME-3M melanoma
NCI-H23 lung = tested on: NCI-H23 lung
HCC-2998 colon = tested on: HCC-2998 colon
OVCAR-4 ovarian = tested on: OVCAR-4 ovarian
LOX IMVI melanoma = tested on: LOX IMVI melanoma
NCI-H522 lung = tested on: NCI-H522 lung
SNB-19 CNS = tested on: SNB-19 CNS
NCI-H226 lung = tested on: NCI-H226 lung
SNB-75 CNS = tested on: SNB-75 CNS
ACHN renal = tested on: ACHN renal
CCRF-CEM leukemia = tested on: CCRF-CEM leukemia
SW-620 colon = tested on: SW-620 colon
HL-60(TB) leukemia = tested on: HL-60(TB) leukemia
K-562 leukemia = tested on: K-562 leukemia
HOP-62 NSCLC = tested on: HOP-62 NSCLC
UACC-62 melanoma = tested on: UACC-62 melanoma
RPMI-8226 leukemia = tested on: RPMI-8226 leukemia
A498 renal = tested on: A498 renal
KM12 colon = tested on: KM12 colon
SK-OV-3 ovarian = tested on: SK-OV-3 ovarian
SK-MEL-28 melanoma = tested on: SK-MEL-28 melanoma
SF-268 CNS = tested on: SF-268 CNS
SF-295 CNS = tested on: SF-295 CNS
CAKI-1 renal = tested on: CAKI-1 renal

COc1ccc2[nH]c(=O)c(CSc3nccc(-c4ccc(Cl)cc4)n3)cc2c1
GI50 (SN12C renal): 15.2 µM | TGI (SN12C renal): 32.9 µM | GI50 (PC-3 prostate): 19 µM | TGI (PC-3 prostate): > 100 µM | GI50 (SK-MEL-5 melanoma): 13.6 µM | TGI (SK-MEL-5 melanoma): 31.3 µM | GI50 (DU-145 prostate): 26 µM | TGI (DU-145 prostate): > 100 µM | GI50 (MCF7 breast): 17 µM | TGI (MCF7 breast): 33.5 µM | GI50 (M14 melanoma): 17.6 µM | TGI (M14 melanoma): 34.2 µM | GI50 (NCI-H460 lung): 17.2 µM | TGI (NCI-H460 lung): 35.4 µM | GI50 (SF-539 CNS): 14.9 µM | TGI (SF-539 CNS): 29.7 µM | GI50 (EKVX NSCLC): 31.2 µM | TGI (EKVX NSCLC): > 100 µM | GI50 (T-47D breast): 13.7 µM | TGI (T-47D breast): 31 µM | GI50 (A549 NSCLC): 14.6 µM | TGI (A549 NSCLC): 30.8 µM | GI50 (MDA-MB-435): 30 µM | TGI (MDA-MB-435): > 100 µM | GI50 (HOP-92 NSCLC): 6.22 µM | TGI (HOP-92 NSCLC): 32.5 µM | GI50 (HCT-116 colon): 13 µM | TGI (HCT-116 colon): 26.8 µM | GI50 (SK-MEL-2 melanoma): 18.1 µM | TGI (SK-MEL-2 melanoma): 44 µM | GI50 (IGROV1 ovarian): 25.5 µM | TGI (IGROV1 ovarian): 89.7 µM | GI50 (NCI/ADR-RES ovarian): 15.4 µM | TGI (NCI/ADR-RES ovarian): 38.7 µM | GI50 (786-0 renal): 13.8 µM | TGI (786-0 renal): 26.7 µM | GI50 (OVCAR-8 ovarian): 16.8 µM | TGI (OVCAR-8 ovarian): 32.4 µM | GI50 (OVCAR-5 ovarian): 24.7 µM | TGI (OVCAR-5 ovarian): 93 µM | GI50 (UACC-257 melanoma): 22.2 µM | TGI (UACC-257 melanoma): 55.6 µM | GI50 (RXF 393 renal): 14.4 µM | TGI (RXF 393 renal): 28.5 µM | GI50 (COLO 205 colon): 23.9 µM | TGI (COLO 205 colon): 61.7 µM | GI50 (HCT-15 colon): 22 µM | TGI (HCT-15 colon): 65.8 µM | GI50 (BT-549 breast): 20 µM | TGI (BT-549 breast): > 100 µM | GI50 (TK-10 renal): 16.6 µM | TGI (TK-10 renal): 36.1 µM | GI50 (OVCAR-3 ovarian): 18.6 µM | TGI (OVCAR-3 ovarian): 39.1 µM | GI50 (MDA-MB-468 breast): 12.5 µM | TGI (MDA-MB-468 breast): 26.1 µM | GI50 (HT29 colon): 28.9 µM | TGI (HT29 colon): > 100 µM | GI50 (HS 578T breast): 26 µM | TGI (HS 578T breast): > 100 µM | GI50 (MOLT-4 leukemia): 12 µM | TGI (MOLT-4 leukemia): > 100 µM | GI50 (U251 CNS): 15.2 µM | TGI (U251 CNS): 28.8 µM | GI50 (MALME-3M melanoma): 18.6 µM | TGI (MALME-3M melanoma): 38.6 µM | GI50 (NCI-H23 lung): 18.9 µM | TGI (NCI-H23 lung): 42.5 µM | GI50 (HCC-2998 colon): 22.5 µM | TGI (HCC-2998 colon): 56.3 µM | GI50 (OVCAR-4 ovarian): 18.5 µM | TGI (OVCAR-4 ovarian): 64.9 µM | GI50 (LOX IMVI melanoma): 17.1 µM | TGI (LOX IMVI melanoma): 34.2 µM | GI50 (NCI-H522 lung): 14.8 µM | TGI (NCI-H522 lung): 28.5 µM | GI50 (SNB-19 CNS): 18 µM | TGI (SNB-19 CNS): 43.5 µM | GI50 (NCI-H226 lung): 18.5 µM | TGI (NCI-H226 lung): 59.9 µM | GI50 (SNB-75 CNS): 23.7 µM | TGI (SNB-75 CNS): 65.1 µM | GI50 (ACHN renal): 16.8 µM | TGI (ACHN renal): 40.1 µM | GI50 (CCRF-CEM leukemia): 77.1 µM | TGI (CCRF-CEM leukemia): > 100 µM | GI50 (SW-620 colon): 20.6 µM | TGI (SW-620 colon): 45.9 µM | GI50 (HL-60(TB) leukemia): > 100 µM | TGI (HL-60(TB) leukemia): > 100 µM | GI50 (K-562 leukemia): 27.8 µM | TGI (K-562 leukemia): > 100 µM | GI50 (HOP-62 NSCLC): 16.5 µM | TGI (HOP-62 NSCLC): 34.3 µM | GI50 (UACC-62 melanoma): 15.3 µM | TGI (UACC-62 melanoma): 78.3 µM | GI50 (RPMI-8226 leukemia): 11.7 µM | TGI (RPMI-8226 leukemia): 39.5 µM | GI50 (A498 renal): 23.8 µM | TGI (A498 renal): 63 µM | GI50 (KM12 colon): 29.2 µM | TGI (KM12 colon): 90.9 µM | GI50 (SK-OV-3 ovarian): 39.3 µM | TGI (SK-OV-3 ovarian): > 100 µM | GI50 (SK-MEL-28 melanoma): 20.6 µM | TGI (SK-MEL-28 melanoma): 51.6 µM | GI50 (SF-268 CNS): 25.4 µM | TGI (SF-268 CNS): > 100 µM | GI50 (SF-295 CNS): 14.4 µM | TGI (SF-295 CNS): 28.4 µM | GI50 (CAKI-1 renal): 15.8 µM | TGI (CAKI-1 renal): 37.7 µM
